# What was measured:
# [1] = system: Aβ40; experiment: In vivo efficacy B-1b/B-2b: brain soluble Aβ40, MSD electrochemiluminescence multiplex; details: mouse brain soluble fraction, dose 30 mg/kg oral dosing, 4 h after dose; untreated control set at 100; read-out: Aβ40 (% vs Ctrl)_Mean
# Source text: (§1) To determine whether acute administration of an Aβ42 lowering agent would reduce Aβ42 levels in vivo, non-transgenic rodents, e.g. mice or rats were used. Animals treated with the Aβ42 lowering agent were examined and compared to those untreated or treated with vehicle and brain levels of soluble Aβ42, Aβ40, Aβ38, and Aβ37 were quantitated by Meso Scale Discovery's (MSD) electrochemiluminescence detection technology. Treatment periods varied from hours (h) to days and were adjusted based on the results of the Aβ42 lowering once a time course of onset of effect could be established.
# (§2) A typical protocol for measuring Aβ42 lowering in vivo is shown but it is only one of many variations that could be used to optimize the levels of detectable Aβ. For example, Aβ42 lowering compounds were formulated in 20% of Captisol® (a sulfobutyl ether of β-cyclodextrin) in water or 20% hydroxypropyl β cyclodextrin. The Aβ42 lowering agents were administered as a single oral dose or by any acceptable route of administration to overnight fasted animals. After 4 h, the animals were sacrificed and Aβ42 levels were analysed.
# (§3) Blood was collected by decapitation and exsanguinations in EDTA-treated collection tubes. Blood was centrifuged at 1900 g for 10 minutes (min) at 4° C. and the plasma recovered and flash frozen for later analysis. The brain was removed from the cranium and hindbrain. The cerebellum was removed and the left and right hemisphere were separated. The left hemisphere was stored at −18° C. for quantitative analysis of test compound levels. The right hemisphere was rinsed with phosphate-buffered saline (PBS) buffer and immediately frozen on dry ice and stored at −80° C. until homogenization for biochemical assays.
# (§4) Mouse brains from non-transgenic animals were resuspended in 8 volumes of 0.4% DEA (diethylamine)/50 mM NaCl containing protease inhibitors (Roche-11873580001 or 04693159001) per gram of tissue, e.g. for 0.158 g brain, add 1.264 ml of 0.4% DEA. All samples were homogenized in the FastPrep-24 system (MP Biomedicals) using lysing matrix D (MPBio #6913-100) at 6 m/s for 20 seconds. Homogenates were centrifuged at 20800×g for 5 min and supernatants collected. Supernatants were centrifuged at 221.300×g for 50 min. The resulting high speed supernatants were then transferred to fresh eppendorf tubes. Nine parts of supernatant were neutralized with 1 part 0.5 M Tris-HCl pH 6.8 and used to quantify Aβ.
# (§5) To quantify the amount of Aβ42, Aβ40, Aβ38, and Aβ37 in the soluble fraction of the brain homogenates, simultaneous specific detection of Aβ42, Aβ40, Aβ38, and Aβ37 was performed using MSD's electro-chemiluminescence multiplex detection technology. In this assay purified monoclonal antibodies specific for Abeta37 (JRD/Aβ37/3), Abeta38 (J&JPRD/Aβ38/5), Abeta40 (JRF/cAβ40/28), and Abeta42 (JRF/cAβ42/26) were coated on MSD 4-plex plates. Briefly, the standards (a dilution of synthetic Aβ42, Aβ40, Aβ38, and Aβ37) were prepared in 1.5 ml Eppendorf tube in Ultraculture, with final concentrations ranging from 10000 to 0.3 pg/m. The samples and standards were co-incubated with Sulfo-tag labelled JRF/rAβ/2 antibody to the N-terminus of Aβ as detector antibody. 50 μl of conjugate/sample or conjugate/standards mixtures were then added to the antibody-coated plate. The plate was allowed to incubate overnight at 4° C. in order to allow formation of the antibody-amyloid complex. Following this incubation and subsequent wash steps the assay was finished by adding read buffer according to the manufacturer's instructions (Meso Scale Discovery, Gaitherburg, Md.).
# (§6) The SULFO-TAG emits light upon electrochemical stimulation initiated at the electrode. MSD Sector instrument SI6000 was used for signal read-out.
# The results are shown in Table 5 (dose 30 mg/kg oral dosing) (value for untreated animals as control (Ctrl) was set at 100): […]
# [2] = system: Aβ38; experiment: In vivo efficacy B-2b: brain soluble Aβ38, MSD electrochemiluminescence multiplex; details: mouse brain soluble fraction, dose 30 mg/kg oral dosing, 4 h after dose; untreated control set at 100; read-out: Aβ38 (% vs Ctrl)_Mean
# Source text: as §1, with “Aβ38 increasing agents” for “Aβ42 lowering agent”, “increase Aβ38” for “reduce Aβ42”, “MSD” for “Meso Scale Discovery's (MSD)”, “Aβ38 increase” for “Aβ42 lowering”
# as §2, with “measuring Aβ38 increase” for “measuring Aβ42 lowering”, “example, Aβ38 increasing agents” for “example, Aβ42 lowering compounds”, “The Aβ38 increasing” for “The Aβ42 lowering”, “and Aβ38” for “and Aβ42”
# as §3, §4, §5, §6
# In this model a Aβ38 increase compared to untreated animals would be advantageous, in particular a Aβ38 increase with at least 10%, more in particular a Aβ38 increase with at least 20%. […]
# [3] = system: Aβ42; experiment: In vivo efficacy B-1b: brain soluble Aβ42, MSD electrochemiluminescence multiplex; details: mouse brain soluble fraction, dose 30 mg/kg oral dosing, 4 h after dose; untreated control set at 100; read-out: Aβ42 (% vs Ctrl)_Mean
# Source text: as §1, §2, §3, §4, §5, §6
# In this model a Aβ42 lowering compared to untreated animals would be advantageous, in particular a Aβ42 lowering with at least 10%, more in particular a Aβ42 lowering with at least 20%. […]
Structure (SMILES),response vs control in vivo at 30 mg/kg [1] [%],response vs control in vivo at 30 mg/kg [2] [%],response vs control in vivo at 30 mg/kg [3] [%]
"COc1c(C#N)ccc2[nH]c(-c3nc4n(n3)CCOC4c3c(F)cccc3Cl)cc12 (single isomer, unassigned) [Compound 117, 2-[8-(2-chloro-6-fluorophenyl)-5,6-dihydro-8H-[1,2,4]triazolo[5,1-c][1,4]oxazin-2-yl]-4-methoxy-1H-indole-5-carbonitrile]",112,147,79
"COc1c(C#N)ccc2[nH]c(-c3cn4c(n3)C(c3ccc(F)cc3C)OCC4)cc12 (stereo not drawn) [Compound 47, 2-[8-(4-fluoro-2-methylphenyl)-5,6-dihydro-8H-imidazo[2,1-c][1,4]oxazin-2-yl]-4-methoxy-1H-indole-5-carbonitrile]",56,222,55
"COc1c(C#N)ccc2[nH]c(-c3nc4n(n3)CCOC4c3ccccc3C(F)(F)F)cc12 (stereo not drawn) [Compound 55, 2-[5,6-dihydro-8-[2-(trifluoromethyl)phenyl]-8H-[1,2,4]triazolo[5,1-c][1,4]oxazin-2-yl]-4-methoxy-1H-indole-5-carbonitrile]",94,148,68
"Cc1cn(-c2ccc3[nH]c(-c4nc5n(n4)CCCC5c4ccc(F)cc4C)nc3c2)cn1 (stereo not drawn) [Compound 176, 8-(4-fluoro-2-methylphenyl)-5,6,7,8-tetrahydro-2-[5-(4-methyl-1H-imidazol-1-yl)-1H-benzimidazol-2-yl]-[1,2,4]triazolo[1,5-a]pyridine]",111,126,103

# Reference: patent US9115143B2, “Substituted indole derivatives as gamma secretase modulators” (Janssen Pharmaceuticals, Inc., priority 2011, dated 2015)
